# Test results as given in patent publication US5102905A, “Thienyl benzothienyl and dibenzothienyl compounds as inhibitors of aldose reductase” (Imperial Chemical Industries PLC, priority 1988, dated 1992).
# Legend:
# [1] = target: T1, aldose reductase (Rattus norvegicus, UniProt P07943); assay: in vivo inhibition of aldose reductase in streptozotocin diabetic rats (residual sorbitol levels in eye lenses and/or sciatic nerves); conditions: dosed daily for one, two or five days, read-out: ED50 in the in vivo test
# T1 construct: the eye lenses and/or sciatic nerves are removed; from tissue; host or cells: rat eye lenses and/or sciatic nerves (in vivo, streptozotocin-diabetic rats)
# Procedure: Rats are made diabetic (as evidenced by severe glucosuria being present) by dosing with streptozotocin. The animals are then dosed daily with the test compound for one, two or five days. The animals are then sacrificed 2-6 hours after the final dose and the eye lenses and/or sciatic nerves are removed. After a standard work-up procedure the residual sorbitol levels in each tissue are determined by gas liquid chromatography after conversion to the polytrimethylsilyl derivatives. Inhibition of aldose reductase in vivo can then be assessed by comparing the residual sorbitol levels in tissues from the dosed diabetic group of rats with those of an undosed group of diabetic rats and an undosed, normal group of rats.
# [2] = target: T2, aldose reductase (Bos taurus, UniProt P16116); assay: in vitro inhibition of partially purified aldose reductase isolated from bovine lenses (spectrophotometric); assay type: biochemical; conditions: read-out: IC50 in the in vitro test
# T2 construct: isolated in known manner from bovine lenses; from tissue; host or cells: bovine lenses
# Excerpt: Thus, in a standard procedure partially purified aldose reductase is isolated in known manner from bovine lenses. The percentage inhibition of this enzyme's ability in vitro to catalyse the reduction of aldoses to polyhydric alcohols, and particularly to reduce glucose or sorbitol, caused by a test compound can then be determined using standard spectrophotometric methods.
smiles,measurement,setting,value
"O=[N+]([O-])CS(=O)(=O)c1cccs1 [Example 1, 2-(nitromethylsulphonyl)thiophene]",ED50,[1],2.1 mg/kg
same,IC50,[2],54 nM
